From patent US12320799B2, “Methods of measuring signaling pathway activity for selection of therapeutic agents” (Celcuity Inc., priority 2017, dated 2025) come the findings set out here.

Holding throughout (type): cell-based, human
One assay deals with FGFR signaling pathway. Briefly: CELx multiple pathway test, impedance biosensor cell adhesion, FGF/BGJ398 pair. The conditions noted are these: activator FGF. The text has this: (§1) Biosensor and transducer: A 96-well impendence E-Plate (ACEA, San Diego, CA) was placed onto an xCELLigence RTCA MP Station impendence biosensor (ACEA, San Diego, CA). The biosensor measured simultaneously the impedance of every well. The change in impedance for a particular well is proportional to the number of cells and type of attachment the cells have with the impedance microplate. Changes in impedance indicate a response to perturbation of these small cell populations. Coatings: The 96-E-Plate were wells were coated with fibronectin and or collagen. Collagen is purchased from Advanced BioMatrix (Carlsbad, CA) and fibronectin from Sigma-Aldrich (St. Louis, MO). Tissue and cell samples: A total of 18 samples of human tumor cells from breast, lung, colon, ovarian, kidney, bladder cancer were studied. For each of these six different cancer types, tumor cell samples from three different patients were tested. Any biomarkers that are used to guide selection of targeted therapy are listed in Table 18 for each patient if they were present. Signaling Pathways activator agent and targeted therapeutic pairs: Eleven different signaling pathways were studied in each human tumor cell sample using […] signaling pathway activator agent and targeted therapeutic pairs. Each of the signaling pathway activator agent and targeted therapeutic pairs affect the same signaling pathway. Each of the signaling pathway activator agents is a well-characterized and specific agonist of its associated signaling pathway and each of the targeted therapeutic agents is a well-characterized and specific antagonist of the same associated signaling pathway. The signaling pathway activator agents and targeted therapeutics used to characterize the activity level of the associated signaling pathway are summarized in Table 16 below:
(§2) Other Reagents: Standard media antibiotics (e.g. penicillin, streptomycin) and other buffers were purchased and used as delivered from ATCC (Manassas, VA, USA) or Life Technologies (Grand Island, NY). Procedure: For each test of a patient cell sample with a pair of signaling pathway activator and targeted therapeutic agents, six wells were seeded with approximately 15,000 cells in 120 uL culture media. Twenty microliters of the targeted therapeutic agent were added to two wells of each patient's cells and 20 microliters of standard media were added to the other four wells for each patient 18 hours in advance of addition of the signaling pathway activator agent. Signaling pathway stimulation was initiated with the addition of 20 ul of the signaling pathway activator agent in the two wells that received a targeted therapeutic agent and in two additional wells for each patient's set of cells without the targeted therapeutic. The impedance recording of attachment and adhesion change was performed at 37° C., 5% C02. Data was recorded on a continuous basis throughout the test, where the data presented is from the initial baseline level of cell attachment compared to the subsequent effects following the targeted therapeutic agent and the signaling pathway activator agent additions on the 18 different patient samples. Results:
(§3) Table 17 presents the results, expressed as an output value, for each of the 167 tests performed using the methods described above. For each of the 18 patient samples, up to 11 different signaling pathways were tested. The output value represents the difference between the amount of cell adhesion change resulting from addition of the signaling pathway activator agent and the amount of cell adhesion change resulting from addition of the targeted therapeutic agent.

The subject of another assay is IGFR signaling pathway. Briefly: CELx multiple pathway test, impedance biosensor cell adhesion, IGF/Linsitinib pair. The conditions noted are these: activator IGF.
From the text: as §1, §2, §3

The subject of another assay is HER3 signaling pathway. Briefly: CELx multiple pathway test, impedance biosensor cell adhesion, NRG1/Neratinib pair. The conditions noted are these: activator NRG1.
From the text: as §1, §2, §3

The test system of another assay is EGFR signaling pathway. Briefly: CELx multiple pathway test, impedance biosensor cell adhesion, EGF/Neratinib pair. The settings on record: activator EGF.
From the text: as §1
as §2, with “samples.” for “samples. Results:”
(§4) For each of the 18 patient samples, up to 11 different signaling pathways were tested. The output value represents the difference between the amount of cell adhesion change resulting from addition of the signaling pathway activator agent and the amount of cell adhesion change resulting from addition of the targeted therapeutic agent.

Assay [1] concerns c-MET/HGF signaling pathway. Briefly: CELx multiple pathway test, impedance biosensor cell adhesion, HGF/SGX-523 pair. The conditions noted are these: activator HGF.
From the text: as §1
as §2, with “samples.” for “samples. Results:”
as §4

`CCN1CCN(c2ccc(Nc3cc(N(C)C(=O)Nc4c(Cl)c(OC)cc(OC)c4Cl)ncn3)cc2)CC1` [BGJ398]: the output value with FGFR signaling pathway (C2 breast tumor cells) is 14; in the assay with FGFR signaling pathway (C21 breast tumor cells), 15; with FGFR signaling pathway (C23 lung tumor cells), 1; in the assay on FGFR signaling pathway (C24 lung tumor cells), −6; in the assay on FGFR signaling pathway (C25 lung tumor cells), 14; in the assay with FGFR signaling pathway (C34 breast tumor cells) it was 33. The output value in the assay with FGFR signaling pathway (C54 ovarian tumor cells) was 65; in the assay on FGFR signaling pathway (C62 colorectal tumor cells) it was 4; with FGFR signaling pathway (C69 ovarian tumor cells), −19; in the assay with FGFR signaling pathway (C71 colorectal tumor cells) it was 43; with FGFR signaling pathway (C72 colorectal tumor cells), −20; in the assay on FGFR signaling pathway (C77 ovarian tumor cells) it was 12. Further, the output value with FGFR signaling pathway (C81 bladder tumor cells) is recorded as 75; in the assay on FGFR signaling pathway (C82 bladder tumor cells) it was −94; in the assay on FGFR signaling pathway (C87 bladder tumor cells), 8; in the assay with FGFR signaling pathway (C88 kidney tumor cells), 251; with FGFR signaling pathway (C90 kidney tumor cells), −47; in the assay with FGFR signaling pathway (C92 kidney tumor cells), 6.

Turning to `C[C@]1(O)C[C@@H](c2nc(-c3ccc4ccc(-c5ccccc5)nc4c3)c3c(N)nccn32)C1` [Linsitinib], the output value in the assay with IGFR signaling pathway (C2 breast tumor cells) was 20; in the assay on IGFR signaling pathway (C21 breast tumor cells), 69; in the assay on IGFR signaling pathway (C23 lung tumor cells) it was 32; in the assay on IGFR signaling pathway (C24 lung tumor cells), −61; in the assay with IGFR signaling pathway (C25 lung tumor cells), −44; in the assay on IGFR signaling pathway (C34 breast tumor cells), 34. The output value in the assay on IGFR signaling pathway (C54 ovarian tumor cells) is listed as −8; in the assay on IGFR signaling pathway (C62 colorectal tumor cells) it was 6; in the assay on IGFR signaling pathway (C69 ovarian tumor cells) it was −111; in the assay with IGFR signaling pathway (C71 colorectal tumor cells) it was −2; in the assay on IGFR signaling pathway (C72 colorectal tumor cells) it was −22; with IGFR signaling pathway (C77 ovarian tumor cells), 56. Also, the output value in the assay with IGFR signaling pathway (C81 bladder tumor cells) is listed as 351; in the assay on IGFR signaling pathway (C82 bladder tumor cells), 21; with IGFR signaling pathway (C87 bladder tumor cells) it was 210; with IGFR signaling pathway (C88 kidney tumor cells), 143; in the assay with IGFR signaling pathway (C90 kidney tumor cells), −607; with IGFR signaling pathway (C92 kidney tumor cells), 73.

On to `CCOc1cc2ncc(C#N)c(Nc3ccc(OCc4ccccn4)c(Cl)c3)c2cc1NC(=O)/C=C/CN(C)C` [Neratinib], for which the output value is on record as −1 in the assay with HER3 signaling pathway (C2 breast tumor cells); 234 in the assay with HER3 signaling pathway (C21 breast tumor cells); 373 in the assay with HER3 signaling pathway (C23 lung tumor cells); 194 in the assay with HER3 signaling pathway (C24 lung tumor cells); 116 in the assay on HER3 signaling pathway (C25 lung tumor cells); 4 in the assay with HER3 signaling pathway (C34 breast tumor cells). Further, the output value in the assay with HER3 signaling pathway (C54 ovarian tumor cells) is recorded as 244; in the assay on HER3 signaling pathway (C62 colorectal tumor cells), 2; in the assay with HER3 signaling pathway (C69 ovarian tumor cells), 178; in the assay on HER3 signaling pathway (C71 colorectal tumor cells) it was 28; in the assay on HER3 signaling pathway (C72 colorectal tumor cells), 5; in the assay with HER3 signaling pathway (C77 ovarian tumor cells), 128. The output value in the assay with HER3 signaling pathway (C81 bladder tumor cells) was 13; with HER3 signaling pathway (C82 bladder tumor cells) it was 31; with HER3 signaling pathway (C87 bladder tumor cells) it was 10; with HER3 signaling pathway (C88 kidney tumor cells), 5; in the assay with HER3 signaling pathway (C90 kidney tumor cells) it was −32; in the assay on HER3 signaling pathway (C92 kidney tumor cells) it was 36. Moreover, the output value was −19 in the assay on EGFR signaling pathway (C2 breast tumor cells); 503 with EGFR signaling pathway (C21 breast tumor cells); 298 with EGFR signaling pathway (C23 lung tumor cells); 245 with EGFR signaling pathway (C24 lung tumor cells); 209 in the assay with EGFR signaling pathway (C25 lung tumor cells); 247 with EGFR signaling pathway (C34 breast tumor cells). Also, the output value in the assay on EGFR signaling pathway (C54 ovarian tumor cells) is 654; in the assay with EGFR signaling pathway (C62 colorectal tumor cells) it was 28; with EGFR signaling pathway (C69 ovarian tumor cells), 614; with EGFR signaling pathway (C71 colorectal tumor cells), 179; in the assay with EGFR signaling pathway (C72 colorectal tumor cells), 5; in the assay with EGFR signaling pathway (C77 ovarian tumor cells) it was −78. Also, the output value in the assay with EGFR signaling pathway (C81 bladder tumor cells) is listed as 344; in the assay with EGFR signaling pathway (C82 bladder tumor cells) it was 345; with EGFR signaling pathway (C87 bladder tumor cells), 334; in the assay with EGFR signaling pathway (C88 kidney tumor cells), −67; with EGFR signaling pathway (C90 kidney tumor cells), 150; in the assay with EGFR signaling pathway (C92 kidney tumor cells), 290.

`Cn1cc(-c2ccc3nnc(Sc4ccc5ncccc5c4)n3n2)cn1` [SGX-523]: the output value in assay [1] (C2 breast tumor cells) is reported as 0; in assay [1] (C21 breast tumor cells), 222; in assay [1] (C23 lung tumor cells), 469; in assay [1] (C24 lung tumor cells), 78; in assay [1] (C25 lung tumor cells), 132; in assay [1] (C34 breast tumor cells), 6. The output value is 123 in assay [1] (C54 ovarian tumor cells); −6 in assay [1] (C62 colorectal tumor cells); −27 in assay [1] (C69 ovarian tumor cells); 53 in assay [1] (C71 colorectal tumor cells); −110 in assay [1] (C72 colorectal tumor cells); 227 in assay [1] (C77 ovarian tumor cells). For the same molecule, the output value in assay [1] (C81 bladder tumor cells) is reported as 419; in assay [1] (C82 bladder tumor cells), 41; in assay [1] (C87 bladder tumor cells), 28; in assay [1] (C88 kidney tumor cells), −13; in assay [1] (C90 kidney tumor cells) it was 368; in assay [1] (C92 kidney tumor cells), 154.
